According to patent publication US20160139152A1, “Biosensor Using Cell That Expresses Chemosensory Receptor That Can Detect Sugar, And Alzheimer's Disease Diagnostic Apparatus Comprising Same” (KYUNGPOOK NATIONAL UNIVERSITY INDUSTRY-ACADEMIC COOPERATION …, priority 2013, published 2016):

What was measured:
[1] = target: T1, Gr5a (Drosophila melanogaster, UniProt Q9W497); test: Voltage change of ISFET biosensor (sensing unit) with fixed drosophila cell line expressing Gr5a; type: cell-based; settings: FIG. 9
T1 construct: After cloning Gr5a cDNA into a pAC vector; expressed in transfected cells
T1 sequence (Q9W497 1-444): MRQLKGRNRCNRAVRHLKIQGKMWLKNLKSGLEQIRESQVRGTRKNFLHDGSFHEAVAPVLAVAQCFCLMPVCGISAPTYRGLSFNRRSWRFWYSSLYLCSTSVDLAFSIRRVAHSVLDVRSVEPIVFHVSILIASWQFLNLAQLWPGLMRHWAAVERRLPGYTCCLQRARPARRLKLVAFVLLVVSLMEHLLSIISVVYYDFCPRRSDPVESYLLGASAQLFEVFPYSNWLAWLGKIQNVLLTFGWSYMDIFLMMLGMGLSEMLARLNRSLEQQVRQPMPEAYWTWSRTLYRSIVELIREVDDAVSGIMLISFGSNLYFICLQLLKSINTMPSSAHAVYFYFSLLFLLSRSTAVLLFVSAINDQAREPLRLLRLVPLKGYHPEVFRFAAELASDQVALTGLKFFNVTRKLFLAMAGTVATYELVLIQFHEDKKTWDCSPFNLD
Method: A cell line expressing Gr5a, which is one of drosophila gustatory receptors, was established with Drosophila Expression System (Invitrogen) using Drosophila Schneider 2 (S2) cells that cannot detect sugar (http://tools.invitrogen.com/content/sfs/manuals/des_man.pdf). After cloning Gr5a cDNA into a pAC vector, the S2 cell line was co-transfected with 2 μg of the cloned plasmid and 200 ng of pCoHygro which is a selection vector resistant to hygromycin, using polyethylenimine (PEI) in a Schneider medium (Invitrogen) containing no serum. A stable cell line expressing Gr5a was established by culturing in a medium containing hygromycin every 4 days, at least 6 times. A high concentration of a polycrystalline silicon thin film was deposited on a p-type silicon substrate through a low pressure chemical vapor deposition (LPCVD) vacuum equipment, and a source electrode and a drain electrode were formed spaced away from each other using lithographic and dry etching processes. An oxide layer was formed of a silicon dioxide (SiO2) layer, a hafnium oxide (HfO2) layer located on the silicon dioxide layer, and an aluminum oxide (Al2O3) layer located on the hafnium oxide layer, on the silicon layer. Rapid thermal treatment (at 850° C. for 30 seconds) was conducted under N2/O2 gas atmosphere, in order to activate the source electrode, the drain electrode, and the oxide layer, successively. […]

[2] = test system: S2 cells; test: Voltage change of ISFET biosensor (reference unit) with fixed S2 cells or general culture media; type: cell-based, Drosophila; settings: FIG. 9
Excerpt: A cell line expressing Gr5a, which is one of drosophila gustatory receptors, was established with Drosophila Expression System (Invitrogen) using Drosophila Schneider 2 (S2) cells that cannot detect sugar (http://tools.invitrogen.com/content/sfs/manuals/des_man.pdf). A high concentration of a polycrystalline silicon thin film was deposited on a p-type silicon substrate through a low pressure chemical vapor deposition (LPCVD) vacuum equipment, and a source electrode and a drain electrode were formed spaced away from each other using lithographic and dry etching processes. An oxide layer was formed of a silicon dioxide (SiO2) layer, a hafnium oxide (HfO2) layer located on the silicon dioxide layer, and an aluminum oxide (Al2O3) layer located on the hafnium oxide layer, on the silicon layer. Rapid thermal treatment (at 850° C. for 30 seconds) was conducted under N2/O2 gas atmosphere, in order to activate the source electrode, the drain electrode, and the oxide layer, successively. After the rapid thermal treatment, a metal electrode was deposited by e-beam deposition. Thereafter, a wall structure was constructed with polydimethylsiloxane (PDMS), and an electrolyte was put into the wall structure, to prepare an ISFET based biosensor. A pair ISFET structure was developed capable of sensing by distinguishing the experimental group from the control group, as shown in FIG. 8. […]

- change in voltage of the pair ISFET depending on the concentration of trehalose [1]: voltage remarkably increases
Structure (SMILES): OC[C@H]1O[C@H](O[C@H]2O[C@H](CO)[C@@H](O)[C@H](O)[C@H]2O)[C@H](O)[C@@H](O)[C@@H]1O [trehalose]
- change in voltage of the pair ISFET depending on the concentration of trehalose [2]: voltage changes little
